The values that follow come from patent publication US10023565B2, “N,N′ substituted piperidinamine compounds, and preparation method and usage thereof” (Institute of Pharmacology and Toxicology Academy of …, priority 2013, dated 2018).

The structures appear in SMILES notation.

Assay in all cases: Antitumor bioactivity evaluation, breast cancer cells (ATPlite)
The test system of one assay is BT474. The assay is classed as cell-based. Particulars: Homo sapiens, BT-474; test sample 5 μM, 72 hours; read-out: Inhibitory Rate % BT474. The method, then:
(§1) Antitumor bioactivity evaluation of the compounds of Examples according to the method described below
(§2) Cells plating: a 100 mm culture dish with overgrown adherent cells was digested with 1 ml 0.25% trypsin (GIBCO) at 37° C. for 5 min, and the reaction was terminated with 2 ml culture medium (containing 10% FBS, GIBCO). The cells were scattered and collected, after counting, diluted to 1×10^5 cells/ml, and seeded into a 96-well plate at 50 μl/well, 5000 cells/well, excluding the peripheral circle of wells in which no cell was added, but PBS was added, 60 wells in total, and then incubated at 37° C. for 24 hours for adhering.
(§3) Addition of the compound and lapatinib: the test sample was diluted to a final concentration of 5 μM, and the culture medium with the corresponding compound solvent concentration was filled in the control well, the compound solvent concentration was kept consistent in each well, 5 parellel wells were set for each concentration, 25 μl each well, 25 μl culture medium (in combined group, 25 μl lapatinib was added till a final concentration of 1 μM) supplemented, followed by incubation at 37° C. for 72 hours.
(§4) Test after incubation at 37° C. for 72 hours: 50 μL of ATPlite kit substrate solution was added in each well, and vibrated for 3 min, followed by placing aside in darkness for 10 min, and then supernatant 100 μl/well was taken and placed on aluminescence test plate; the luminescence test plate that has been fully incubated was placed in a luminescence test instrument, to read luminescence value.
(§5) 1. Cell survival rate (%)=Experimental group RLU/control group RLU×100%. The experimental data were subjected to data analysis and processing by utilizing GraphPad software.

The next assay deals with MDA-MB-361. In kind it is cell-based. The following applies: Homo sapiens, test sample 5 μM, 72 hours, read-out: Inhibitory Rate % MDA-MB-361. The method, then:
as §1, §2, §3, §4, §5

The subject of the next assay is MDA-MB-453. The assay is classed as cell-based. Particulars: Homo sapiens, test sample 5 μM, 72 hours, read-out: Inhibitory Rate % MDA-MB-453. The method, then: as §1, §2, §3, §4, §5
A further assay has as its system SK-BR3. The assay is classed as cell-based. The following applies: Homo sapiens, SK-BR-3; test sample 5 μM, 72 hours; read-out: Inhibitory Rate % SK-BR3. The method, then: as §1, §2, §3, §4, §5
For another assay, the system named is SK/Lap^R1.0. The assay is classed as cell-based. Particulars: Homo sapiens; test sample 5 μM, 72 hours; read-out: Inhibitory Rate % SKLap^R1.0. On the procedure:
as §1, §2, §3, §4, §5

A further assay has as its system BT/Lap^R1.0. In kind it is cell-based, human. The following applies: Homo sapiens; test sample 5 μM, 72 hours; read-out: Inhibitory Rate % BT/Lap^R1.0. The method, then:
as §1, §2, §3, §4, §5

As for `COc1cc(N2CCC(N(C)Cc3ccc(F)cc3)CC2)ncn1` [Example 62, N-methyl-N-(4-fluorobenzyl)-N-[1-(6-methoxypyrimidin-4-yl)piperidin-4-yl]amine], the inhibition at 5 µM came to 7.8% in the assay on BT474; 4.9% with MDA-MB-361; 5% in the assay with MDA-MB-453; 7.6% with SK-BR3; 5.7% in the assay on SK/Lap^R1.0; 8.1% in the assay on BT/Lap^R1.0.
As to `COc1nccc(N2CCC(N(C)Cc3c(F)cccc3Cl)CC2)n1` [Example 54, N-methyl-N-(2-fluoro-6-chlorobenzyl)-N-[1-(2-methoxypyrimidin-4-yl)piperidin-4-yl]amine], the inhibition at 5 µM in the assay on BT474 was 65.4%; with MDA-MB-361, 48.3%; in the assay on MDA-MB-453, 64.7%; in the assay with SK-BR3, 27.7%; in the assay with SK/Lap^R1.0 it was 17.2%; with BT/Lap^R1.0, 62.4%.
Take `COc1nccc(N2CCC(N(C)Cc3ccc(C)cc3)CC2)n1` [Example 51, N-methyl-N-(4-methylbenzyl)-N-[1-(2-methoxypyrimidin-4-yl)piperidin-4-yl]amine]: the inhibition at 5 µM with BT474 turned out to be 65.6%; in the assay with MDA-MB-361, 45.7%; with MDA-MB-453, 70.5%; with SK-BR3 it was 34.5%; in the assay with SK/Lap^R1.0 it was 22.4%; in the assay on BT/Lap^R1.0 it was 65.2%.
As for `CCOc1ncc(CN2CCC(N(C)Cc3cc(Cl)ccc3Cl)CC2)s1` [Example 10, N-methyl-N-(2,5-dichlorobenzyl)-N-{[1-(2-ethoxythiazol-5-yl)methyl]piperidin-4-yl}amine], the inhibition at 5 µM in the assay on BT474 stood at 5.6%; with MDA-MB-361, 25.3%; in the assay on MDA-MB-453 it was 23.9%; with SK-BR3, 9.4%; in the assay with SK/Lap^R1.0 it was 5.2%; in the assay with BT/Lap^R1.0, 9.6%.
In the case of `CSc1nccc(N2CCC(N(C)Cc3ccc(C)cc3)CC2)n1` [Example 42, N-methyl-N-(4-methylbenzyl)-N-[1-(2-methylthiopyrimidin-4-yl)piperidin-4-yl]amine], the inhibition at 5 µM was found to be 36.7% in the assay with BT474; 45.1% with MDA-MB-361; 60.8% in the assay with MDA-MB-453; 41.4% in the assay with SK-BR3; 35.8% in the assay on SK/Lap^R1.0; 28.6% in the assay on BT/Lap^R1.0.
`CSc1ncc(CN2CCC(N(C)Cc3cccc(Cl)c3)CC2)s1` [Example 28, N-methyl-N-(3-chlorobenzyl)-N-{1-[(2-methylthiothiazol-5-yl)methyl]piperidin-4-yl}amine]: the inhibition at 5 µM was determined as 44.9% in the assay with BT474; 31.1% in the assay on MDA-MB-361; 62.3% with MDA-MB-453; 26.7% in the assay with SK-BR3; 7.3% in the assay on SK/Lap^R1.0; 36.1% with BT/Lap^R1.0.
`CSc1nccc(N2CCC(N(C)Cc3cc(Cl)ccc3Cl)CC2)n1` [Example 44, N-methyl-N-(2,5-dichlorobenzyl)-N-[1-(2-methylthiopyrimidin-4-yl)piperidin-4-yl]amine]: the inhibition at 5 µM with BT474 turned out to be 67.1%; with MDA-MB-361, 50.4%; in the assay with MDA-MB-453 it was 66.2%; in the assay on SK-BR3, 32.6%; in the assay with SK/Lap^R1.0, 35.2%; in the assay on BT/Lap^R1.0, 63.9%.
On to `COc1cc(N2CCC(N(C)Cc3cc(Cl)ccc3Cl)CC2)ncn1` [Example 67, N-methyl-N-(2,5-dichlorobenzyl)-N-[1-(6-methoxypyrimidin-4-yl)piperidin-4-yl]amine], for which the inhibition at 5 µM was 45.9% in the assay on BT474; 27.6% in the assay with MDA-MB-361; 61.1% in the assay on MDA-MB-453; 29.2% in the assay on SK-BR3; 9.4% in the assay with SK/Lap^R1.0; 32.1% in the assay with BT/Lap^R1.0.
